Patent US11730714B2, “Compounds for the treatment of neuromuscular disorders” (NMD PHARMA A/S, priority 2017, dated 2023)

How the values were obtained:
[1] = system: rats injected with tubocurarine; test: Rotarod running performance of rats after I.P. tubocurarine (myasthenia-like phenotype); format: in vivo, rat; details: C8 20 mg/kg I.P. 2 hrs before tubocurarine 0.13 mg/kg I.P.; tested 21 min after tubocurarine; sham around 2%
Description: FIGS. 9A-9B. […] FIG. 9A illustrates the design of the experiments. Prior to Day One the animals had been familiarized to the rotarod in three training sessions distributed over two days.
In both series of experiments, running performance was tested on a rotarod using a protocol where the rod was accelerated gradually over a 5 min period, and the running time and covered distance before falling off the rod were measured. […] Experiments with tubocurarine were carried out over two days, and on each day the effect of tubocurarine on running performance was tested. On the first day only tubocurarine was injected. […] On the second day, the animals were first allowed to run on the rotarod, and all animals performed normally. […] The allocation of the animals into the two groups (C8 or sham) was random and unknown to the experimenter (blinded experimental design).
In the first series of in vivo experiments, myasthenia gravis was simply mimicked by I.P. injection of tubocurarine (0.13 mg/kg) in animals that had been familiarized to running on the rotarod. On the first of two consecutive days, tubocurarine was injected I.P. and the running performance of the animal was tested 21 minutes after this injection. On the second day of experimentation, the animals first performed a test run to ensure that they were no longer affected by the tubocurarine injected the day before. […]

isolated rat muscle = test: Measurement of force in an in vitro model: isolated rat soleus nerve-muscle preparation, 115 nM tubocurarine; format: cell-based; details: 50 μM compound, 40 mins exposure, 115 nM tubocurarine, isolated rat soleus nerve-muscle preparation
Description: FIGS. 12A-12B. […] Force traces from a representative muscle stimulated to contract in 1) control condition before addition of neuromuscular blocking agent, 2) the force response to stimulation after 90 minutes incubation with Tubocurarine. […] The traces presented in FIG. 12A (1, 2, 3), correspond to the dotted lines in FIG. 12B, respectively.
Recovery of force is quantified as the percentage of the force prior to tubocurarine that is recovered by the compound.
The current invention relates to compounds that inhibit CIC-1 ion channels and increase muscle excitability and thereby improve muscle function in clinical conditions where muscle activation is failing. Such conditions result in loss of contractile function of skeletal muscle, weakness and excessive fatigue. […]
Experimentally, soleus muscles from 4-5 wk old rats were isolated with the motor nerve remaining attached. […] Stimulation of the motor nerve led to activation of the muscle fibres and ensuing force production that was recorded.
After mounting the nerve-muscle preparation in the experimental setup, the contractile function of the muscle was initially assessed under the control conditions (FIG. 2A). […] To quantify the ability of the compound to restore force the percentage of the initial force that was restored was determined after 40 mins of compound exposure (FIG. 2B) and the point increase is reported in Table 8.

human CIC-1 channels = target: T1, human CIC-1 channels (Homo sapiens, UniProt P35523); test: Automated patch-clamp on human CIC-1 expressed in CHO cells (shift in half activation voltage V1/2); format: cell-based; details: compound in intracellular solution vs vehicle control patches; CHO cells expressing human ClC-1
T1 construct: host or cells: CHO (Chinese hamster ovary) cells, cryopreserved, used directly after thawing
Description: FIG. 13A-13B: FIG. 13A illustrates the voltage protocol used to evoke currents in whole cell patches of CHO cells expressing human CIC-1 channels.
The investigatory goal of these experiments was to evaluate how compounds affect the open probability and current amplitude of human CIC-1 channels expressed in CHO cells. Experiments were performed using an automated patch clamp system that allowed high throughput testing of whole cell patches together with both intracellular and extracellular addition of compound.
Automated whole cell patch clamp experiments were performed with the Qpatch 16 system (Sophion Bioscience, Ballerup, Denmark) at room temperature. Data acquisition and analysis were performed in the Qassay software (ver. 5.6, Odense).
To obtain tail currents, the membrane potential was stepped to −100 mV after each test voltage for 300 ms and then relaxed to −30 mV for 2 sec between sweeps (FIG. 3). I/V relationships for whole cell instant and steady state current amplitudes were obtained by plotting average current densities at the beginning and at the end of the 300 ms step against the membrane potential (FIG. 4).
In order to determine the relative overall open probability (Po), the instantaneous tail currents were normalized to the maximal tail current obtained following the most positive voltage step and plotted against the test voltage. Plots of normalized tail currents from each whole cell patch were then fitted to a Boltzmann function allowing determination of half activation voltages (V1/2, FIG. 5).
Osmolality adjusted to […] using sucrose.
Intracellular solutions contained: 80 mM […], 60 mM CsCl, 5/1 mM KOH/EGTA, 10 mM HEPES, 10 mM NaCl, pH adjusted to 7.2 with NaOH (2 M). Osmolality adjusted to ˜320 mOsm using sucrose.
Cells used in patch clamp experiments were Chinese hamster ovary cells (CHO) constitutively expressing human CIC-1 channels. The amino acid sequence encoded by the cDNA used to create this cell line was identical to the translated sequence for GenBank accession number NM_000083.2. Cells were produced by Charles River (Catalogue CT6175, Cleveland Ohio, USA) in a cryopreserved format. Experiments were performed on the cells directly after thawing (3×10^6 cells used in each experiment).
To evaluate the compound effect on CIC-1, when applied directly to the intracellular side of the cell membrane, the half activation voltage, V1/2, was determined from whole cell patches with compound added to the intracellular solution and then compared to V1/2 determined from control cell patches with only vehicle added to the intracellular solution. Additionally, the effect of extracellular added compound was evaluated by determine V1/2 and steady state current amplitudes before and after exchanging the extracellular solution to contain compound.
The difference in half activation voltage of CIC-1 channels, […]V1/2, was determined as the difference between the cell patches treated intracellularly with compound and control cells patches and is reported in Table 4 below. A positive shift in […]V1/2 is reflecting CIC-1 channel inhibition by the tested compound. P-values of <0.05 is considered significant.

T1 sequence (P35523 whole entry): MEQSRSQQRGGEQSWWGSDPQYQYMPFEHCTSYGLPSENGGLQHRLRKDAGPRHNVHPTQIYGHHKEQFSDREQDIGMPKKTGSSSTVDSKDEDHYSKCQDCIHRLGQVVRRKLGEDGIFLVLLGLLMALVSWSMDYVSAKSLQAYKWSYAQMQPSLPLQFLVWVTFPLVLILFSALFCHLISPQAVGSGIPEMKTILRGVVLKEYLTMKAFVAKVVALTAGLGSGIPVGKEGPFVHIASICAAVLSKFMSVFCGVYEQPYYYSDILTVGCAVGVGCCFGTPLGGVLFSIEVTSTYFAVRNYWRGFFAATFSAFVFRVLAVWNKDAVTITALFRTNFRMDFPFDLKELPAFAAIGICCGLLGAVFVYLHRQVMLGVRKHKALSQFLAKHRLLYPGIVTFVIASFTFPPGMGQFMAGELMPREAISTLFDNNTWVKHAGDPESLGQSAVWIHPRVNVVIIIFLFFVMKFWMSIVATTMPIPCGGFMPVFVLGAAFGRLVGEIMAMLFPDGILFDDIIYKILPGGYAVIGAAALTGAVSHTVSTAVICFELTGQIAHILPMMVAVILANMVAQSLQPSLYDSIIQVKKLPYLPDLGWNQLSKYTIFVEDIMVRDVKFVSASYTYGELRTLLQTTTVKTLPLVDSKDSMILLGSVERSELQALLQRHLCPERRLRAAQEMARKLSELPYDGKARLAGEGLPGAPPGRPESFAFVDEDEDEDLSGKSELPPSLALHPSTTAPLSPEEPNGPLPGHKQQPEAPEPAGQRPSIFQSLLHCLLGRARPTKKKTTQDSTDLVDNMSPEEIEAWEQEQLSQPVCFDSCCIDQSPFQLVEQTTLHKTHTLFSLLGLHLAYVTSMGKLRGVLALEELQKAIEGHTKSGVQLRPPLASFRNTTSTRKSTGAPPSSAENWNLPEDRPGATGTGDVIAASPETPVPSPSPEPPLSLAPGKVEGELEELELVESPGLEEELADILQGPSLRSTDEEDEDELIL

ΔV½ (difference in half activation voltage of ClC-1) (human CIC-1 channels) | Compound | increase in running performance on the second day vs the first day (rotarod) [1] | Point increase (%) of initial force that was restored (isolated rat muscle)
 | C[C@H](Oc1ccc(Br)cc1)C(=O)O [Compound C8, (2S)-2-(4-bromophenoxy)propanoic acid] | around 150% | 
20.0 mV | (2S)-2-(4-bromophenoxy)(2-^2H)butanoic acid [Compound A-60] |  | 62%
